Reference: US20240208981A1, “NITROGEN-CONTAINING HETEROCYCLIC POLYCYCLIC COMPOUND, PREPARATION METHOD THEREFOR, AND APPLICATION THEREOF” (Shanghai Hansoh Biomedical Co., Ltd., priority 2021, published 2024)

Tests used:
[1] = molecular target: human OX1R (Homo sapiens (Human), UniProt O43613); assay: Calcium flux in cells stably expressing OX1 receptor (FLIPR, Fluo-8 AM); format: cell-based; conditions: CHO-K1/human OX1R cells; inhibition of calcium flux, agonist OX-A at EC80
Procedure: (§1) To determine the inhibitory effect of the compounds on calcium flux in CHO-K1/human OX1R and CHO-K1/human OX2R cells.
(§2) • 1) CHO-K1/human OX1R and CHO-K1/human OX2R cell lines were cultured separately in complete medium at 37° C., 5% CO2 to 70%˜90% confluence; • 2) A 384-well cell culture plate was coated with 1× Matrigel (5 uL per well) at room temperature for 10-30 minutes; • 3) The cells were digested and resuspended in cell inoculation medium. CHO-K1/human OX1R and CHO-K1/human OX2R cell lines were inoculated into two 384-well cell culture plates respectively (8,000 cells/well/20 μL). The culture plates were incubated at 37 °C, 5% CO2 for 24 hours; • 4) The cell culture plates were taken out of the CO2 incubator and equilibrated at room temperature for 10 minutes; • 5) 1000× Fluo-8 AM was diluted with assay buffer 1 equilibrated to room temperature to obtain 1× Fluo-8 AM at a concentration of 2 μM; • 6) The culture medium in the cell culture plate was removed, and 20 μL of 1× Fluo-8 AM was added to each well. The plates were centrifuged at room temperature at 300 rpm for 60 seconds, and incubated at room temperature in the dark for 1 hour; • 7) Determination of EC80 of OX1 and OX2 receptors agonists (OX-A for OX1R assays, OX-B for OX2R assays): OX1 and OX2 receptors agonists working solutions were diluted and prepared respectively. The diluted OX1 and OX2 receptors agonists were added using FLIPR Tetra to the experimental wells of the 384-well cell culture plates corresponding to CHO-K1/human OX1R and CHO-K1/human OX2R cell lines. The data were collected, and EC80 of OX-A and OX-B was obtained according to the following experimental data processing method; • 8) Steps 1 to 7 were repeated. […] After 15 minutes, OX1 and OX2 receptors agonists were added to the plates of the two cell lines respectively according to the previously obtained EC80. The data were collected, and the IC50 of the positive compounds and the test compounds was determined.
(§3) Fluorescence signal value (RFU) was collected with FLIPR Tetra.

[2] = molecular target: human OX2R (Homo sapiens (Human), UniProt O43614); assay: Calcium flux in cells stably expressing OX2 receptor (FLIPR, Fluo-8 AM); format: cell-based; conditions: for IC50: CHO-K1/human OX2R cells, inhibition of calcium flux, agonist OX-B at EC80; for Selectivity multiple: OX1R IC50 versus OX2R IC50
Procedure: as §1, §2, §3

[3] = molecular target: CYP450 1A2 (Homo sapiens (Human), UniProt P05177)
Procedure: (§4) The human liver microsome incubation system was used to rapidly predict the inhibitory effect of the compounds on CYP450 enzyme subtypes by using single-point method.
(§5) The compound of the example to be tested was weighed, diluted to 10 mM with DMSO, and then diluted to 100 μM with 100 mM phosphate buffer.
(§6) • 1. 40 μL of liver microsomes, 10 μL of substrate, and 10 μL of the test compound were added to a 96-well plate, and pre-incubated for 3 minutes. • 2. 40 μL of NADPH was added. • 3. 300 μL of acetonitrile stop solution containing an internal standard was added at 20 minutes. • 4. The sample was injected […].

[4] = molecular target: CYP450 2C9 (Homo sapiens (Human), UniProt P11712); assay: CYP enzyme single point inhibition assay, human liver microsomes, 2C9; format: in vitro ADME; conditions: single-point method
Procedure: as §4, §5, §6

[5] = molecular target: CYP450 2D6 (Homo sapiens (Human), UniProt P10635); assay: CYP enzyme single point inhibition assay, human liver microsomes, 2D6; format: in vitro ADME; conditions: single-point method
Procedure: as §4, §5, §6

[6] = in vivo; conditions: male, SD, rat, po, 5 mg/kg
Procedure: SD rats were used as test animals.
The plasma samples were stored at −80° C.

Sequence of human OX1R (O43613 whole entry): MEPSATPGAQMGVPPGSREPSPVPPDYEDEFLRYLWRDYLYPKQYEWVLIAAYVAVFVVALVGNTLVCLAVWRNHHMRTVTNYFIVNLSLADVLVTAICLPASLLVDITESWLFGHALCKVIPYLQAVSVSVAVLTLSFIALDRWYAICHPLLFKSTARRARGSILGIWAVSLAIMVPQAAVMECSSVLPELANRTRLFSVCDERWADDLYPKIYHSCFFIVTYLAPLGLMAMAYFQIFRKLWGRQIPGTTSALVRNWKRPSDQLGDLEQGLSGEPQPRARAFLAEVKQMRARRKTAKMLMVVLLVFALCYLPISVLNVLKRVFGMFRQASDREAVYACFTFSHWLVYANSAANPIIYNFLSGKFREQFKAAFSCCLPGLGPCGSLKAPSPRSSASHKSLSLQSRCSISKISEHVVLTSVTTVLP
Sequence of CYP450 1A2 (P05177 whole entry): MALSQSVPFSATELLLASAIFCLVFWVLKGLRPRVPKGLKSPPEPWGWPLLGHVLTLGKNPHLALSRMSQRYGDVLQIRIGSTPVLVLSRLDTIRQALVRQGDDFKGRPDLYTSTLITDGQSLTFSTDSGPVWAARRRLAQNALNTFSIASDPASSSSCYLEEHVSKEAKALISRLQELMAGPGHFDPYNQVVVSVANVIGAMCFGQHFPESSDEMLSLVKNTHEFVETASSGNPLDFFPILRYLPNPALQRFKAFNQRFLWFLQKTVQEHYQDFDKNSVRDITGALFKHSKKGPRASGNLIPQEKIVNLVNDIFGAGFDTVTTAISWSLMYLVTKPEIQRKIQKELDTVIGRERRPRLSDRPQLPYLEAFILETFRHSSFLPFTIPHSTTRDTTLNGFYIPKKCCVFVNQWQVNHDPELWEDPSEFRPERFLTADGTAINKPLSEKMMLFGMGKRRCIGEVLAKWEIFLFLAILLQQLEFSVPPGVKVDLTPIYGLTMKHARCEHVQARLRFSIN
Sequence of human OX2R (O43614 whole entry): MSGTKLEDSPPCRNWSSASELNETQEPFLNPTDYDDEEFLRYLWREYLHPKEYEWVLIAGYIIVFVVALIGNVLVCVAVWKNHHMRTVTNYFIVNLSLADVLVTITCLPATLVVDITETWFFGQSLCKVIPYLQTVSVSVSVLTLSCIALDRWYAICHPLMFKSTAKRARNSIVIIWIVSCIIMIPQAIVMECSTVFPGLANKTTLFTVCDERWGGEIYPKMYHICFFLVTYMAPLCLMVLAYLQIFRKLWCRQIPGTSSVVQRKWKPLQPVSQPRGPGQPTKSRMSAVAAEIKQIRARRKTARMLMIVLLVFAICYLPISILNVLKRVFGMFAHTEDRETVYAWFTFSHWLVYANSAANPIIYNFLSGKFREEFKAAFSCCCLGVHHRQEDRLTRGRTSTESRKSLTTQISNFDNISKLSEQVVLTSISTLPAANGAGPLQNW
Sequence of CYP450 2C9 (P11712 whole entry): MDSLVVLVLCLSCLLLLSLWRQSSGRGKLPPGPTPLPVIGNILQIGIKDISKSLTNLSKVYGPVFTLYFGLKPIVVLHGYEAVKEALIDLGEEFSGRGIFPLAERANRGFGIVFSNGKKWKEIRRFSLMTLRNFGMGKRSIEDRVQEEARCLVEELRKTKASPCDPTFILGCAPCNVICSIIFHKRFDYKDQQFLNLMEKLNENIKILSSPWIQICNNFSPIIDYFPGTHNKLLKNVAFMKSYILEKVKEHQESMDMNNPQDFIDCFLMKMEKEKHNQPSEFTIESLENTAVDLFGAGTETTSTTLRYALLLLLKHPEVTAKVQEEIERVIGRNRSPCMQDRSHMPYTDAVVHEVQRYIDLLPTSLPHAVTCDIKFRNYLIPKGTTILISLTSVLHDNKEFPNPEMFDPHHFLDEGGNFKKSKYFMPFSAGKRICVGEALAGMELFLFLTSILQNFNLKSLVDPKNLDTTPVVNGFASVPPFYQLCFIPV
Sequence of CYP450 2D6 (P10635 whole entry): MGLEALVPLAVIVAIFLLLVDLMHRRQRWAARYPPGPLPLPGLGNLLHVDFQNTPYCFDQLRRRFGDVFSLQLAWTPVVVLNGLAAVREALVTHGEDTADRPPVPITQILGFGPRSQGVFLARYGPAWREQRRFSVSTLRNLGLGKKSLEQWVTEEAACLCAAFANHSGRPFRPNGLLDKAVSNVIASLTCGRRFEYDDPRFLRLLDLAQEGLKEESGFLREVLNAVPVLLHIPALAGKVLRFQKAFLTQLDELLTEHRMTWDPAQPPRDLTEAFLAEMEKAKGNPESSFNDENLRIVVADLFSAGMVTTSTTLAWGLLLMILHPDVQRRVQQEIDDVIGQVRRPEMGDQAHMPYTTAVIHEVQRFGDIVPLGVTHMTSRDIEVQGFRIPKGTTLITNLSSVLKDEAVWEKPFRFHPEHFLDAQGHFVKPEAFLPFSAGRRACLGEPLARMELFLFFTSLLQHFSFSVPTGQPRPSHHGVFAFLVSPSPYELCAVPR

Compound: Cc1cc(C)nc(N2C[C@H]3CN(C(=O)c4ccccc4OC(F)(F)C(F)F)C[C@H]3C2)n1 [Compound 45, ((3aR,6aS)-5-(4,6-dimethylpyrimidin-2-yl)hexahydropyrrolo[3,4-c]pyrrol-2(1H)-yl)(2-(1,1,2,2-tetrafluoroethoxy)phenyl)methanone]
- IC50 [1]: 4.33 µM
- IC50 [2]: 0.0522 µM
- Selectivity multiple [2]: 83

Compound: Cc1cc(C)nc(N2C[C@H]3CN(C(=O)c4c(F)cccc4-n4ncc(C5CC5)n4)C[C@H]3C2)n1 [Compound 43, (2-(4-cyclopropyl-2H-1,2,3-triazol-2-yl)-6-fluorophenyl)((3aR,6aS)-5-(4,6-dimethylpyrimidin-2-yl)hexahydropyrrolo[3,4-c]pyrrol-2(1H)-yl)methanone]
- IC50 [1]: 10.2 µM
- IC50 [2]: 0.0999 µM
- Selectivity multiple [2]: 102

Compound: Cc1cc(C(C)(C)O)nc(N2C[C@H]3CN(C(=O)c4c(F)cccc4-n4nccn4)C[C@H]3C2)n1 [Compound 3, (2-fluoro-6-(2H-1,2,3-triazol-2-yl)phenyl)((3aR,6aS)-5-(4-(2-hydroxypropan-2-yl)-6-methylpyrimidin-2-yl)hexahydropyrrolo[3,4-c]pyrrol-2(1H)-yl)methanone]
- IC50 [1]: 3.7 µM
- IC50 [2]: 0.0444 µM
- Selectivity multiple [2]: 83

Compound: Cc1cc(N2C[C@H]3CN(C(=O)c4c(F)cccc4-n4nccn4)C[C@H]3C2)nc(C(C)(C)O)c1 [Compound 60, (2-fluoro-6-(2H-1,2,3-triazol-2-yl)phenyl)((3R,6S)-5-(6-(2-hydroxypropan-2-yl)-4-methylpyridin-2-yl)hexahydropyrrolo[3,4-c]pyrrol-2(1H)-yl)methanone]
- IC50 [1]: 13.5 µM
- IC50 [3]: > 100 µM
- IC50 [2]: 0.0552 µM
- Selectivity multiple [2]: 244

Compound: Cc1nc(N2C[C@H]3CN(C(=O)c4cccc(F)c4-n4nccn4)C[C@H]3C2)nc(C(C)(C)O)c1F [Compound 95, (3-fluoro-2-(2H-1,2,3-triazol-2-yl)phenyl)((cis)-5-(5-fluoro-4-(2-hydroxypropan-2-yl)-6-methylpyrimidin-2-yl)hexahydropyrrolo[3,4-c]pyrrol-2(1H)-yl)methanone]
- IC50 [4]: > 100 µM
- IC50 [3]: > 100 µM
- IC50 [5]: > 100 µM
- Selectivity multiple [2]: 49

Compound: Cc1nc(N2C[C@H]3CN(C(=O)c4c(F)cccc4-c4ccccn4)C[C@H]3C2)nc(C(C)(C)O)c1F [Compound 97, ((3aR,6aS)-5-(5-fluoro-4-(2-hydroxypropan-2-yl)-6-methylpyrimidin-2-yl)hexahydropyrrolo[3,4-c]pyrrol-2(1H)-yl)(2-fluoro-6-(pyridin-2-yl)phenyl)methanone]
- Selectivity multiple [2]: 36

Compound: Cc1cc(C(C)(C)F)nc(N2C[C@H]3CN(C(=O)c4c(F)cccc4-n4nccn4)C[C@H]3C2)n1 [Compound 57, (2-fluoro-6-(2H-1,2,3-triazol-2-yl)phenyl)((3aR,6aS)-5-(4-(2-fluoropropan-2-yl)-6-methylpyrimidin-2-yl)hexahydropyrrolo[3,4-c]pyrrol-2(1H)-yl)methanone]
- AUC(0-inf) [6]: 279 ng·h/mL
- Cmax [6]: 110 ng/mL
- Tmax [6]: 30 min
- IC50 [1]: 3.05 µM
- IC50 [2]: 0.0097 µM
- Selectivity multiple [2]: 314

Compound: CC(C)(O)c1nc(N2C[C@H]3CN(C(=O)c4c(F)cccc4-n4nccn4)C[C@H]3C2)ccc1F [Compound 91, ((3aR,6aS)-5-(5-fluoro-6-(2-hydroxypropanyl)pyridin-2-yl)hexahydropyrrolo[3,4-c]pyrrol-2(1H)-yl)(2-fluoro-6-(2H-1,2,3-triazol-2-yl)phenyl)methanone]
- IC50 [1]: 3.16 µM
- IC50 [2]: 0.0359 µM
- Selectivity multiple [2]: 88

Compound: Cc1ccc(N2C[C@H]3CN(C(=O)c4c(F)cccc4-n4nccn4)C[C@H]3C2)nc1C(C)(C)O [Compound 48, (2-fluoro-6-(2H-1,2,3-triazol-2-yl)phenyl)((3aR,6aS)-5-(6-(2-hydroxypropan-2-yl)-5-methylpyridin-2-yl)hexahydropyrrolo[3,4-c]pyrrol-2(1H)-yl)methanone]
- IC50 [1]: 24.4 µM
- IC50 [2]: 0.0745 µM
- Selectivity multiple [2]: 328

Compound: Cc1cc(N2C[C@H]3CN(C(=O)c4c(O)cccc4-n4nccn4)C[C@H]3C2)nc(C(C)(C)O)c1 [Compound 85, (2-hydroxy-6-(2H-1,2,3-triazol-2-yl)phenyl)((3R,6S)-5-(6-(2-hydroxypropan-2-yl)-4-methylpyridin-2-yl)hexahydropyrrolo[3,4-c]pyrrol-2(1H)-yl)methanone]
- IC50 [1]: 13.7 µM
- IC50 [2]: 0.0585 µM
- Selectivity multiple [2]: 234

Compound: Cc1cc(C(C)(C)O)nc(N2C[C@H]3CN(C(=O)c4c(F)cccc4-c4ncccn4)C[C@H]3C2)n1 [Compound 56, (2-fluoro-6-(pyrimidin-2-yl)phenyl)((3R,6S)-5-(4-(2-hydroxypropan-2-yl)-6-methylpyrimidin-2-yl)hexahydropyrrolo[3,4-c]pyrrol-2(1H)-yl)methanone]
- IC50 [1]: 3.32 µM
- IC50 [2]: 0.0082 µM
- Selectivity multiple [2]: 405

Compound: CC(C)(O)c1nc(N2C[C@H]3CN(C(=O)c4c(F)cccc4-c4ncccn4)C[C@H]3C2)ncc1F [Compound 93, ((3aR,6aS)-5-(5-fluoro-4-(2-hydroxypropan-2-yl)pyrimidin-2-yl)hexahydropyrrolo[3,4-c]pyrrol-2(1H)-yl)(2-fluoro-6-(pyrimidin-2-yl)phenyl)methanone]
- IC50 [4]: > 100 µM
- IC50 [3]: > 100 µM
- IC50 [5]: > 100 µM
- Selectivity multiple [2]: 122

Compound: Cc1nc(N2C[C@H]3CN(C(=O)c4ccc(F)cc4-n4nccn4)C[C@H]3C2)nc(C(C)(C)O)c1F [Compound 94, (4-fluoro-2-(2H-1,2,3-triazol-2-yl)phenyl)((cis)-5-(5-fluoro-4-(2-hydroxypropan-2-yl)-6-methylpyrimidin-2-yl)hexahydropyrrolo[3,4-c]pyrrol-2(1H)-yl)methanone]
- IC50 [1]: 1.2 µM
- IC50 [2]: 0.0252 µM
- Selectivity multiple [2]: 48

Compound: Cc1cc(C)nc(N2C[C@H]3CN(C(=O)c4ccccc4-c4nc5ccccc5o4)C[C@H]3C2)n1 [Compound 50, (2-(benzooxazol-2-yl)phenyl)((3aR,6aS)-5-(4,6-dimethylpyrimidin-2-yl)hexahydropyrrolo[3,4-c]pyrrol-2(1H)-yl)methanone]
- IC50 [1]: 5.84 µM
- IC50 [2]: 0.0711 µM
- Selectivity multiple [2]: 82
